Results published in ChEMBL document CHEMBL1201862, “PubChem BioAssay data set” (2004).
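Interpolation was linear, between the two tested concentrations surrounding the appropriate level; five concentrations were tested over 48 hours in 96-well plates. The concentration for 50% growth inhibition is given as GI50.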 The source made the active and inactive calls. Rule as the data show it: active = GI50 up to about 1.1 µM and inactive = higher.

What was measured:
Assay in all cases: DTP human tumour cell line panel, 48 h
MCF7 = test system: MCF7
MDA-N = test system: MDA-N
SK-MEL-28 = test system: SK-MEL-28
HT-29 = test system: HT-29
CAKI-1 = test system: CAKI-1
A549 = test system: A549
UACC-257 = test system: UACC-257
SF-539 = test system: SF-539
HCT-116 = test system: HCT-116
PC-3 = test system: PC-3
TK-10 = test system: TK-10
OVCAR-4 = test system: OVCAR-4
SNB-19 = test system: SNB-19
ACHN = test system: ACHN
CCRF-CEM = test system: CCRF-CEM
Hs-578T = test system: Hs-578T
NCI-H23 = test system: NCI-H23
786-0 = test system: 786-0
MOLT-4 = test system: MOLT-4
NCI/ADR-RES = test system: NCI/ADR-RES
OVCAR-3 = test system: OVCAR-3
EKVX = test system: EKVX
A498 = test system: A498
SK-MEL-2 = test system: SK-MEL-2
HCC 2998 = test system: HCC 2998
K562 = test system: K562
SF-268 = test system: SF-268
MDA-MB-435 = test system: MDA-MB-435
UACC-62 = test system: UACC-62
SNB-75 = test system: SNB-75
DU-145 = test system: DU-145
COLO 205 = test system: COLO 205
Malme-3M = test system: Malme-3M
T47D = test system: T47D
BT-549 = test system: BT-549
NCI-H460 = test system: NCI-H460
M14 = test system: M14
OVCAR-5 = test system: OVCAR-5
MDA-MB-231 = test system: MDA-MB-231
SF-295 = test system: SF-295
U-251 = test system: U-251
SN12C = test system: SN12C
SW-620 = test system: SW-620
SK-OV-3 = test system: SK-OV-3
RPMI-8226 = test system: RPMI-8226
NCI-H226 = test system: NCI-H226
HCT-15 = test system: HCT-15
OVCAR-8 = test system: OVCAR-8
UO-31 = test system: UO-31
RXF 393 = test system: RXF 393
HL-60 = test system: HL-60
KM12 = test system: KM12
LOX IMVI = test system: LOX IMVI
HOP-62 = test system: HOP-62
HOP-92 = test system: HOP-92
SK-MEL-5 = test system: SK-MEL-5

Cc1nc2cc(C(F)(F)F)ccc2[nH]c1=O
GI50 (MCF7): > 100 µM (inactive) | GI50 (MDA-N): > 100 µM (inactive) | GI50 (SK-MEL-28): > 100 µM (inactive) | GI50 (HT-29): > 100 µM (inactive) | GI50 (CAKI-1): > 100 µM (inactive) | GI50 (A549): > 100 µM (inactive) | GI50 (UACC-257): > 100 µM (inactive) | GI50 (SF-539): > 100 µM (inactive) | GI50 (HCT-116): > 100 µM (inactive) | GI50 (PC-3): > 100 µM (inactive) | GI50 (TK-10): > 100 µM (inactive) | GI50 (OVCAR-4): > 100 µM (inactive) | GI50 (SNB-19): > 100 µM (inactive) | GI50 (ACHN): > 100 µM (inactive) | GI50 (CCRF-CEM): > 100 µM (inactive) | GI50 (Hs-578T): 21.9 µM (inactive) | GI50 (NCI-H23): > 100 µM (inactive) | GI50 (786-0): > 100 µM (inactive) | GI50 (MOLT-4): > 100 µM (inactive) | GI50 (NCI/ADR-RES): > 100 µM (inactive) | GI50 (OVCAR-3): > 100 µM (inactive) | GI50 (EKVX): 7.08 µM (inactive) | GI50 (A498): > 100 µM (inactive) | GI50 (SK-MEL-2): > 100 µM (inactive) | GI50 (HCC 2998): > 100 µM (inactive) | GI50 (K562): > 100 µM (inactive) | GI50 (SF-268): > 100 µM (inactive) | GI50 (MDA-MB-435): > 100 µM (inactive) | GI50 (UACC-62): 87.7 µM (inactive) | GI50 (SNB-75): > 100 µM (inactive) | GI50 (DU-145): > 100 µM (inactive) | GI50 (COLO 205): > 100 µM (inactive) | GI50 (Malme-3M): > 100 µM (inactive) | GI50 (T47D): 45.5 µM (inactive) | GI50 (BT-549): > 100 µM (inactive) | GI50 (NCI-H460): > 100 µM (inactive) | GI50 (M14): > 100 µM (inactive) | GI50 (OVCAR-5): > 100 µM (inactive) | GI50 (MDA-MB-231): > 100 µM (inactive) | GI50 (SF-295): > 100 µM (inactive) | GI50 (U-251): > 100 µM (inactive) | GI50 (SN12C): > 100 µM (inactive) | GI50 (SW-620): > 100 µM (inactive) | GI50 (SK-OV-3): > 100 µM (inactive) | GI50 (RPMI-8226): > 100 µM (inactive) | GI50 (NCI-H226): > 100 µM (inactive) | GI50 (HCT-15): > 100 µM | GI50 (OVCAR-8): > 100 µM (inactive) | GI50 (UO-31): > 100 µM (inactive) | GI50 (RXF 393): > 100 µM (inactive) | GI50 (HL-60): > 100 µM (inactive) | GI50 (KM12): > 100 µM (inactive) | GI50 (LOX IMVI): > 100 µM (inactive) | GI50 (HOP-62): > 100 µM (inactive) | GI50 (HOP-92): > 100 µM (inactive) | GI50 (SK-MEL-5): > 100 µM (inactive)
